According to ChEMBL document CHEMBL1130962, “Selective alpha-1a adrenergic receptor antagonists. Effects of pharmacophore regio- and stereochemistry on potency and selectivity” (Bioorg Med Chem Lett, 1998):

What was measured:
[1] = biological target: T1, Alpha-1D adrenergic receptor (Homo sapiens, UniProt P25100); test: Binding affinity against human Alpha-1d adrenergic receptor was evaluated by cloned receptor binding assay
T1 sequence (P25100 whole entry): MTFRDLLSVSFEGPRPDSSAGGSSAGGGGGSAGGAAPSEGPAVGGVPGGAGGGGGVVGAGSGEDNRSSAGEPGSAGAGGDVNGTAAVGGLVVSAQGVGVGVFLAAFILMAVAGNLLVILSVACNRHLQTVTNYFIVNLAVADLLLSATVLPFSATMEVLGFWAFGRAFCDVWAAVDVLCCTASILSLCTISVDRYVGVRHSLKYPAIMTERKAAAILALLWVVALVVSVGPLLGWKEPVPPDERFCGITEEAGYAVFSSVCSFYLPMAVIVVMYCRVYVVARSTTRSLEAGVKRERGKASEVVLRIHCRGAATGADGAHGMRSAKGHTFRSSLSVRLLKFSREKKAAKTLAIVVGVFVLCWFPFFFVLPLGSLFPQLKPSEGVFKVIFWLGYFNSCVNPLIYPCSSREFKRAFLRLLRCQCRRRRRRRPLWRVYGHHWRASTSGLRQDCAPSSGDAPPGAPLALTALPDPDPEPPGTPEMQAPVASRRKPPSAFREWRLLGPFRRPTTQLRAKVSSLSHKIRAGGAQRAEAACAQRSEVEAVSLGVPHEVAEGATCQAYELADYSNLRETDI

[2] = biological target: T2, Alpha-1B adrenergic receptor (Homo sapiens, UniProt P35368); test: Binding affinity against human Alpha-1b adrenergic receptor was evaluated by cloned receptor binding assay
T2 sequence (P35368 whole entry): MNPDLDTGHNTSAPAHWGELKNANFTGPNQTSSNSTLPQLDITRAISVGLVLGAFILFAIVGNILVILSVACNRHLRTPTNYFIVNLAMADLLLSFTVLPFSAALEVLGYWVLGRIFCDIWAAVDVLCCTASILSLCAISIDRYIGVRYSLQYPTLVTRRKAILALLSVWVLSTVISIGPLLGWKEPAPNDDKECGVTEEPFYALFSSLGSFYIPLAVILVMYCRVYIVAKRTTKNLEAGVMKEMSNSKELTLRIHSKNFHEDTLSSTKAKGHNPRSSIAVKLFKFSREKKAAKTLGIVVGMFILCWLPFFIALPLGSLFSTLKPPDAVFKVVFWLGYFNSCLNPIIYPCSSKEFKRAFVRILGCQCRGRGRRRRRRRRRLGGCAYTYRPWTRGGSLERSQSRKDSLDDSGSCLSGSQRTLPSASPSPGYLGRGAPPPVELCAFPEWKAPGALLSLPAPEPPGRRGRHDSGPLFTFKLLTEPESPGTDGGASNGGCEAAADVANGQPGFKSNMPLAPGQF

[3] = biological target: T3, Alpha-1A adrenergic receptor (Homo sapiens, UniProt P35348); test: Binding affinity against human Alpha-1a adrenergic receptor was evaluated by cloned receptor binding assay
T3 sequence (P35348 whole entry): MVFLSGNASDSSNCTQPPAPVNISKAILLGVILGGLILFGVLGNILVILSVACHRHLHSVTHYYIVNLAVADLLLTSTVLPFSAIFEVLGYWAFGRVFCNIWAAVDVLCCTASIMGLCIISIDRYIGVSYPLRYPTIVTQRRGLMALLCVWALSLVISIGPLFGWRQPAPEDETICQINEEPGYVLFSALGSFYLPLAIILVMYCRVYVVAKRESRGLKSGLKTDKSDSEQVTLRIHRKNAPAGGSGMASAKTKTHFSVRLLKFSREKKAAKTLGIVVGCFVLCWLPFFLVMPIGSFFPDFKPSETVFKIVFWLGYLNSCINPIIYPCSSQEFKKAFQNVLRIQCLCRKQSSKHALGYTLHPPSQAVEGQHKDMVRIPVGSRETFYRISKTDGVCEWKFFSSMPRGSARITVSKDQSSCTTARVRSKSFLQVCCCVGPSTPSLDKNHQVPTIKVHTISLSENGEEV

Mu-type opioid receptor = Mu-type opioid receptor (Mus musculus, UniProt P42866); test: Opioid binding affinity was evaluated using [3H]DAMGO as radioligand
Sequence of Mu-type opioid receptor (P42866 whole entry): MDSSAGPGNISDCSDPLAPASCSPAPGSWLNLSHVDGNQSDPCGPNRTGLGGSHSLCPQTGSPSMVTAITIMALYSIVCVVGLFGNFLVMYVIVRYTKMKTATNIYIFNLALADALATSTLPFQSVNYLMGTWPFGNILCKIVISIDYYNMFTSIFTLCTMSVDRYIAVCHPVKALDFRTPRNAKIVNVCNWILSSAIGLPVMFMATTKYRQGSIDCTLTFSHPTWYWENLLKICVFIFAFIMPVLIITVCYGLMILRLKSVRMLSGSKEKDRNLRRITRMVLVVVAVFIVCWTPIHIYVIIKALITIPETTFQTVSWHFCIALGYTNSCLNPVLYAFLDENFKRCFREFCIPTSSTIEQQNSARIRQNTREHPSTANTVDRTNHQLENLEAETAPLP

CCOC(=O)[C@H]1CN(CCCCN2C(=O)c3cc(Cl)ccc3S2(=O)=O)CC[C@H]1c1ccccc1
Ki [1]: 1.1 µM
Ki [2]: > 2 µM
Ki [3]: 0.098 µM

COC(=O)C1(c2ccccc2)CCN(CCCCN2C(=O)c3cc(Cl)ccc3S2(=O)=O)CC1
Ki [1]: 2 µM
Ki [2]: 2.2 µM
Ki [3]: 0.044 µM

CCOC(=O)[C@@H]1CN(CCCCN2C(=O)c3cc(Cl)ccc3S2(=O)=O)CC[C@@H]1c1ccccc1
Ki [1]: 0.48 µM
Ki [2]: 0.17 µM
Ki [3]: 0.00051 µM

CCOC(=O)[C@H]1CNCC[C@H]1c1ccccc1
Ki (Mu-type opioid receptor): 12 µM

CCOC(=O)[C@@H]1CNCC[C@@H]1c1ccccc1
Ki (Mu-type opioid receptor): 7.6 µM

CCOC(=O)C1CN(CCCCN2C(=O)c3cc(Cl)ccc3S2(=O)=O)CCC1c1ccccc1 (racemic)
Ki [1]: 1.8 µM
Ki [2]: 0.94 µM
Ki [3]: 0.003 µM

CCOC(=O)C1CNCCC1c1ccccc1 (racemic)
Ki (Mu-type opioid receptor): 24 µM

CCOC(=O)[C@H]1CN(CCCCN2C(=O)c3cc(Cl)ccc3S2(=O)=O)CC[C@@H]1c1ccccc1 (racemic)
Ki [1]: 0.32 µM
Ki [2]: 1.4 µM
Ki [3]: 0.1 µM

O=C1c2ccccc2S(=O)(=O)N1CCCCN1CCN(c2ncccn2)CC1 [IPSAPIRONE]
Ki [1]: 0.046 µM
Ki [2]: 0.22 µM
Ki [3]: 0.087 µM
